Measurements reported in paper PMC2690574 (Journal of medicinal chemistry, 2008).
Like-named read-outs stand apart in the source and are kept apart here.

Legend:
[1] = system: anoxic HT29 cell suspensions; assay: Rate constant for metabolic consumption kmet in anoxic single cell suspensions; assay type: in vitro ADME; details: scaled to the cell density in MCLs
[2] = One electron reduction potential E; assay type: physicochemical; details: anaerobic aqueous solution, pH 7.0, pulse radiolysis
anoxic HT29 tumor tissue = assay: Penetration half distance X½ calculated from D and kmet; details: for EVT based on X½ (in words): compared with TPZ
HT29 cells [3] = assay: IC50 assay, 4 h drug exposure under aerobic and anoxic conditions, HT29; assay type: cell-based; details: criterion HCR > 20 in the PK/PD model
[4] = cited from earlier work; for E(1): one electron reduction potential
[5] = culture medium; cited from earlier work
[6] = calculated using ACD logD, pH 7.4; cited from earlier work
[7] = system: anoxic HT29 cell suspensions; details: scaled to MCL cell density; cited from earlier work
SiHa cells = details: cited from earlier work
HT29 cells [8] = details: read-out: HT29 IC50 hypox; HT29, anoxic; cited from earlier work
[9] = side chain, calculated using ACD pKa; cited from earlier work
HT29 MCLs = details: calculated; cited from earlier work

| SMILES | kmet (first order rate constant for metabolism) [1] [min⁻¹] | E(1) [2] [mV] | other results |
| --- | --- | --- | --- |
| Nc1n[n+]([O-])c2cc3c(cc2[n+]1[O-])CCC3 [TTO 3] | 0.47 | – | – |
| CCN(CC)CCNc1n[n+]([O-])c2cc3c(cc2[n+]1[O-])CCC3 [TTO 5] | 1.08 | – | – |
| CCCN(CCC)CCNc1n[n+]([O-])c2cc3c(cc2[n+]1[O-])CCC3 [TTO 6] | 1.07 | – | – |
| [O-][n+]1nc(NCCCN2CCOCC2)[n+]([O-])c2cc3c(cc21)CCC3 [TTO 8] | 0.19 | – | – |
| CCN(CC)CCNc1n[n+]([O-])c2c3c(ccc2[n+]1[O-])CCC3 [TTO 10] | 0.97 | – | – |
| CCCN(CCC)CCNc1n[n+]([O-])c2c3c(ccc2[n+]1[O-])CCC3 [TTO 11] | 0.73 | – | – |
| [O-][n+]1nc(NCCN2CCCCC2)[n+]([O-])c2ccc3c(c21)CCC3 [TTO 12] | 1.60 | – | – |
| [O-][n+]1nc(NCCCN2CCOCC2)[n+]([O-])c2ccc3c(c21)CCC3 [TTO 13] | 0.20 | −510 | – |
| CC1Cc2cc3c(cc2C1)[n+]([O-])c(NCCN(C)C)n[n+]3[O-] (centres unmarked) [TTO 14] | 1.49 | – | – |
| CC1Cc2cc3c(cc2C1)[n+]([O-])c(NCCCN1CCOCC1)n[n+]3[O-] (centres unmarked) [TTO 15] | 0.13 | – | – |
| CN(C)CCNc1n[n+]([O-])c2c3c(ccc2[n+]1[O-])CCCC3 [TTO 18] | 1.78 | – | – |
| CN(C)CCNc1n[n+]([O-])c2cc3c(cc2[n+]1[O-])CCCCC3 [TTO 19] | 1.52 | −488 | – |
| Nc1n[n+]([O-])c2cc3c(cc2[n+]1[O-])OCC3 [TTO 22] | – | – | hypoxic selectivity (in words) (HT29 cells [3]): failed to pass the criterion for hypoxic selectivity (HCR > 20) |
| CCN(CC)CCNc1n[n+]([O-])c2cc3c(cc2[n+]1[O-])OCC3 [TTO 24] | 0.26 | – | EVT based on X½ (in words) (anoxic HT29 tumor tissue): predicted to display improved EVT |
| CN(C)CCNc1n[n+]([O-])c2c3c(ccc2[n+]1[O-])OCCC3 [TTO 29] | 0.59 | – | – |
| CCN1Cc2cc3c(cc2C1)[n+]([O-])c(N)n[n+]3[O-] [TTO 31] | 2.20 | −390 | – |
| CCNc1n[n+]([O-])c2cc3c(cc2[n+]1[O-])CN(C)CC3 [TTO 32] | – | −462 | – |
| CC1Cc2cc3c(cc2C1)[n+]([O-])c(CCCO)n[n+]3[O-] (centres unmarked) [TTO 33] | 0.24 | – | – |
| [O-][n+]1nc(CCCN2CCOCC2)[n+]([O-])c2cc3c(cc21)CC(CO)C3 (centres unmarked) [TTO 37] | 0.90 | −408 | – |
| CCc1n[n+]([O-])c2cc3c(cc2[n+]1[O-])CC(CCO)C3 (centres unmarked) [TTO 38] | 0.54 | – | – |
| [O-][n+]1nc(CCCN2CCOCC2)[n+]([O-])c2cc3c(cc21)CCO3 [TTO 40] | 0.31 | −468 | – |
| CCc1n[n+]([O-])c2cc3c(cc2[n+]1[O-])CN(C)CC3 [TTO 41] | – | −344 | – |
| Nc1n[n+]([O-])c2ccccc2[n+]1[O-] [compound 1, tirapazamine] | – | – | E(1) [4]: −456 mV; Sol. [5]: 9 mM; logP7.4 calc [6]: −0.33 |
| COc1ccc2c(c1)[n+]([O-])c(NCCN(C)C)n[n+]2[O-] [compound 2] | – | – | kmet (first order rate constant for metabolism) [7]: 0.54 min⁻¹; SiHa HCR (SiHa cells; oxic IC50/hypoxic IC50): 232; IC50 (SiHa cells; read-out: SiHa IC50 hypox, anoxic): 2.9 µM; E(1) [4]: −500 mV; lowering of E(1) by 6-OMe substituent ([4]; relative to the 3-dimethylaminoethylamine BTO): 104 mV; IC50 (HT29 cells [8]): 7.7 µM; Sol. [5]: 46 mM; pKa [9]: 8.5; D calc (diffusion coefficient in HT29 MCLs) (HT29 MCLs): 2.9 ×10^−7 cm^2s^−1; logP7.4 calc [6]: −0.07 |

Second part, led by results:

| kmet (first order rate constant for metabolism) [1] [min⁻¹] | E(1) [2] [mV] | SMILES | other results |
| --- | --- | --- | --- |
| 0.44 | −486 | CN(C)CCNc1n[n+]([O-])c2cc3c(cc2[n+]1[O-])CCC3 [TTO 4] | – |
| 1.25 | – | [O-][n+]1nc(NCCN2CCCCC2)[n+]([O-])c2cc3c(cc21)CCC3 [TTO 7] | – |
| 0.74 | −480 | CN(C)CCNc1n[n+]([O-])c2c3c(ccc2[n+]1[O-])CCC3 [TTO 9] | – |
| 0.69 | – | [O-][n+]1nc(NCCCN2CCOCC2)[n+]([O-])c2cc3c(cc21)CCCC3 [TTO 17] | – |
| 0.20 | – | [O-][n+]1nc(NCCCN2CCOCC2)[n+]([O-])c2cc3c(cc21)OCC3 [TTO 21] | EVT based on X½ (in words) (anoxic HT29 tumor tissue): predicted to display improved EVT |
| 0.60 | −545 | CN(C)CCNc1n[n+]([O-])c2cc3c(cc2[n+]1[O-])OCC3 [TTO 23] | – |
| 0.23 | – | [O-][n+]1nc(NCCCN2CCOCC2)[n+]([O-])c2cc3c(cc21)CCO3 [TTO 25] | EVT based on X½ (in words) (anoxic HT29 tumor tissue): predicted to display improved EVT |
| 0.47 | −452 | CCc1n[n+]([O-])c2cc3c(cc2[n+]1[O-])CC(CO)C3 (centres unmarked) [TTO 35] | – |
| 0.54 | – | CCc1n[n+]([O-])c2cc3c(cc2[n+]1[O-])CC(CN1CCOCC1)C3 (centres unmarked) [TTO 36] | – |
| 0.54 | −431 | CCc1n[n+]([O-])c2cc3c(cc2[n+]1[O-])CC(CCN1CCOCC1)C3 (centres unmarked) [TTO 39] | X½ (penetration half distance) (anoxic HT29 tumor tissue; anoxic HT29 tumor tissue, from D and kmet): 100 μm |
